Experimental findings from PMC12736008, “New Dimethylpyridine-3-Carboxamide Derivatives as MMP-13 Inhibitors with Anticancer Activity” (Molecules, 2025) are described below.

A short description of data set [1]: Solubility on preparing DMSO stock solutions. The format is physicochemical. The settings on record: dissolved to 30 mM. On the procedure:
(§1) All tested compounds were dissolved in DMSO to obtain stock solutions with a final concentration of 50 mM (3a, 3b, 3e), 40 mM (3f, 3g, 3i, 3j), and 35 mM (3h, 3k). […] In the next step, 10 µL of each stock solution was added to 990 µL of supplemented medium.

The next data set is described as follows: MTT assay, NHDF. The format is cell-based, human. The settings on record: human, NHDF cells (normal human dermal fibroblasts), 0.004 mM to 0.5 mM.
Source text: As mentioned earlier, MMP-13 is overexpressed and functionally significant in various cancers, including melanoma and colorectal carcinoma. For instance, high MMP-13 levels have been correlated with metastasis and poor survival in melanoma patients. In colorectal cancer, elevated MMP-13 activity has been observed in tumors compared to normal mucosa, and its expression is associated with a worse prognosis. Based on computational studies, four out of the eleven designed compounds showing the most promising predicted activity against MMP-13 were selected for biological evaluation. For the MTT assay, NHDF cells were used as the healthy reference cell line, while A375 (melanoma) and HT-29 (colorectal adenocarcinoma cancer) cell lines were chosen as cancer models.
Experiments were conducted using two cancer cell lines and, as a control, a normal human dermal fibroblasts (NHDF; ATCC PCS-201-012). The A375 cell line (human melanoma, ATCC CRL-1619), and HT-29 cell line (human colorectal adenocarcinoma, ATCC HTB-38) were cultured in DMEM (Dulbecco’s Modified Eagle Medium, Institute of Immunology and Experimental Therapy (IITD), Wrocław, Poland) supplemented with 1% antibiotics (10 U/mL penicillin and 10 µg/mL streptomycin, Sigma-Aldrich, St Louis, MO, USA), 1% glutamine (Sigma-Aldrich, St Louis, MO, USA) and 10% fetal bovine serum (FBS, Gibco, Grand Island, NY, USA). For NHDF cultures, α-MEM (α-Minimum Essentials Medium, Institute of Immunology and Experimental Therapy (IITD), Poland) was used with the same supplement combination as for the cancer cell lines. All cells were maintained in a humidified incubator (INCO 105, Memmert GmbH, Schwabach, Germany) at 37 °C with 5% CO2 and 95% humidity. Cells were passaged routinely by trypsinization (twice a week). For the MTT (3-(4,5-simethylthiazol-2,5-diphenyltetrazolinum bromide), Sigma, St. Louis, MO, USA) assay, cells were used after 2–4 passages, when they reached approximately 80% confluence.
as §1
The MTT assay was performed in 96-well plates, with a seeding density of 1 × 10^4 cells per well. All cell lines were incubated for 24 h in their respective media: α-MEM for (NHDF cells) and DMEM for (A375 and HT-29) cells. After incubation, the medium was removed and replaced with fresh medium containing the tested compounds at concentrations ranging from 0.004 mM to 0.5 mM. […] Absorbance was measured spectrophotometrically at a wavelength of 570 nm using a BioTek SYNERGY H1 microplate reader (Agilent, Santa Clara, CA, USA).
(In general: Formazan colour is commonly taken as a measure of viable cells.)

In a further data set the target is T1, MMP-13 (Homo sapiens, UniProt P45452).
T1 construct: purchased Abcam ab139451
As to the kind of experiment: MMP-13 inhibitor screening assay kit (fluorometric). It counts as biochemical. The note with it: single-point screening; tested compounds 1.8 to 4.6 µM. On the procedure:
(§2) The inhibitory activity of the designed compounds against MMP-13 was evaluated using a commercial fluorometric MMP-13 inhibitor assay kit (Abcam, Cambridge, UK), following the manufacturer’s protocol. Solutions of the tested compounds were prepared at concentrations ranging from 1.8 to 4.6 µM. N-isobutyl-N-(4-methoxyphenylsulfonyl)glycyl hydroxamic acid (NNGH), a broad-spectrum inhibitor of matrix metalloproteinases, was used as positive control. […] In parallel, MMP-8 inhibition assays were also conducted using the same concentrations of compounds 3b, 3c, 3d, and 3g.
(§3) It should be emphasized that these assays were performed as single-point screening experiments, optimized for rapid qualitative assessment rather than full kinetic characterization. Consequently, the observed differences in activity between MMP-13 and MMP-8 are indicative trends supporting the selectivity predicted by computational studies, including docking, molecular dynamics simulations, and binding free energy calculations, rather than providing definitive quantitative evidence.
(§4) The inhibitory activity of the tested compounds was evaluated using the MMP-13 inhibitor screening assay kit (fluorometric) (Abcam, ab139451). The assay performed according to the manufacturer’s instructions. The designed compounds were tested at concentrations ranging from 1.8 to 4.6 µM, to determine their inhibitory activity. […]

Another data set concerns the target T2, MMP-8 (Homo sapiens, UniProt P22894).
T2 construct: purchased Abcam ab139453
In words: MMP-8 inhibitory screening assay kit (fluorometric). The format is biochemical. The settings on record: single-point screening; same concentrations, 1.8 to 4.6 µM. On the procedure:
as §2, §3, §4

As a reminder, the viability is a per cent measure of how many cells are alive, often set against a control.

T2 sequence (P22894 101-467): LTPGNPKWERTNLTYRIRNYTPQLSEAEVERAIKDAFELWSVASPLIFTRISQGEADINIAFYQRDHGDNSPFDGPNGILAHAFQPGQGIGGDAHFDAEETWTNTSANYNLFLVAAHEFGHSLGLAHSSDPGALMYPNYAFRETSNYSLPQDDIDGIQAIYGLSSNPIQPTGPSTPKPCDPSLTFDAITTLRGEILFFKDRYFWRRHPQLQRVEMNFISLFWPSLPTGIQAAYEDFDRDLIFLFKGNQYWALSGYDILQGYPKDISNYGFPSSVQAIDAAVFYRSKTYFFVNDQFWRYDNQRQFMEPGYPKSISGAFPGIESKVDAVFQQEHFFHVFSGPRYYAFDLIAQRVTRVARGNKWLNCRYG

For `Cc1cc(C)c(C(=O)NCC(=O)NCc2ccc(Cl)cc2)c(S)n1` [Compound 3c, N-{2-[(4-chlorobenzyl)amino]-2-oxoethyl}-4,6-dimethyl-2-sulfanylpyridine-3-carboxamide], in data set [1], the solubility result is “low solubility”.

Take `Cc1cc(C)c(C(=O)NCC(=O)NCc2ccccc2Cl)c(S)n1` [Compound 3d, N-{2-[(2-chlorobenzyl)amino]-2-oxoethyl}-4,6-dimethyl-2-sulfanylpyridine-3-carboxamide]: the solubility entry in data set [1] is given as “low solubility”. Moreover, the viability at 24 h in “MTT assay, NHDF” was above 63%.

As to `Cc1cc(C)c(C(=O)NCC(=O)NCc2ccccc2)c(S)n1` [Compound 3g, 4,6-dimethyl-N-[2-(benzylamino)-2-oxoethyl]-2-sulfanylpyridine-3-carboxamide], the MMP-13 activity inhibition result on MMP-13 is “most pronounced inhibitory effect”. The MMP-8 activity inhibition result on MMP-8 is “slight inhibitory activity”.
